Drawing on patent publication US8809372B2, “Pyridine derivatives” (Endo Pharmaceuticals, Inc., priority 2011, dated 2014), this text covers IC50 for 16 compounds.

Experiment [1] has as its target T1, rat CYP17 (rat testicular microsomes) (Rattus norvegicus, UniProt P11715).
T1 construct: Rat testis tissue was collected and disrupted with 30 strokes of a glass homogenizer; from tissue; host or cells: rat testis (microsomes)
T1 sequence (P11715 1-507): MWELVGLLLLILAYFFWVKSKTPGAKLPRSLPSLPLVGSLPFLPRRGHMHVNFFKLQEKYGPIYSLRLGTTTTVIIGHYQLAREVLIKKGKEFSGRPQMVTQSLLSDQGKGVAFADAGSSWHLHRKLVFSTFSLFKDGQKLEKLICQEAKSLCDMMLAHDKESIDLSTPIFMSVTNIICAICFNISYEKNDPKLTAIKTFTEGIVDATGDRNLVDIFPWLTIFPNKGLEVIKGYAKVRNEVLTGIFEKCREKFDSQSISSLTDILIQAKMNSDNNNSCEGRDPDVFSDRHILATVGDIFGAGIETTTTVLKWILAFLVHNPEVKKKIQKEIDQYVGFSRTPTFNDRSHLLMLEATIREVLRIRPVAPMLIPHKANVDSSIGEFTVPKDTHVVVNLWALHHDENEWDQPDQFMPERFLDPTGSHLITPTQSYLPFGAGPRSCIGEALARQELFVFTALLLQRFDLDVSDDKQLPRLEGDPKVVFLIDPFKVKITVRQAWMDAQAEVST
The experiment is described as follows: CYP17 inhibition assay in rat testicular microsomes. It is filed as biochemical. On the procedure:
CYP17 Inhibition Assay in Rat Testicular Microsomes (Rat CYP17) or Yeast Microsome Overexpressing Human CYP17
1. NADPH (Sigma): A working stock was prepared by adding 25 μL of 6.5 mM NADPH in each tube. The final concentration of NADPH used in the assay was 325 μM.
2. Potassium Phosphate Buffer: One molar (1M) solutions of K2HPO4 and KH2PO4 were prepared. Eight mL of the 1 M KH2PO4 and 1.98 mL of the 1 M K2HPO4 were combined and the pH was adjusted to 7.4.
3. ^3H3-17α-hydroxypregnenolone (American Radiolabeled Chemicals, Inc., stock 1 μCi/μL): A 1:1 dilution of ^3H3-17α-hydroxypregnenolone in ethanol was prepared by combining 100 μL ^3H3-17α-hydroxypregnenolone+100 μL ethanol for one complete 96 well plate. For the reaction, 2 μL of the diluted ^3H3-17α-hydroxypregnenolone was added in each tube, i.e., 1 μCi/reaction. 4. Microsome Isolation Buffer: The microsome isolation buffer was prepared by combining 250 mM Sucrose, 5 mM EDTA, 10 mM Tris HCl, 4 mM DTT, and adjusting to pH 7.4. 5. TEG Buffer: The TEG buffer was prepared by combining 50 mM Tris HCl, 1 mM EDTA, and 20% Glycerol. 6. Rat Testicular Microsomes: Rat testis tissue was collected and disrupted with 30 strokes of a glass homogenizer on ice with 250 μL of microsome isolation buffer, followed by centrifugation at 10,000 g for 10 minutes at 4° C. The supernatant was collected and centrifuged at 100,000 g for 45 minutes at 4° C. The pellet was dissolved in TEG Buffer and the protein was quantified. The homogenized microsome samples were then frozen at −80° C. • 7. Yeast Microsomes which overexpress the human CYP17 enzyme were obtained from Premas Biotech, India.
Potassium phosphate buffer (470 μL) was prepared as described above and was added to each well of a deep well plate. The test compound was diluted using a TECAN liquid handler and 5 μL of diluted compound was transferred to each well (96 deep well/1 mL). A solution (25 μL) of 6.5 mM NADPH was added (final concentration of 325 μM in the assay). ^3H3-17α-hydroxypregnenolone (2 μL of the working stock) was added to each tube. The plates were then pre-incubated for 15 minutes at 37° C. Following the pre-incubation, either 5 μL rat testicular microsomes (150-160 μg) or 5 μL of yeast microsomes expressing human CYP17 (1.7 pmol), was added. Incubation was at 37° C. for 60 minutes in the presence of oxygen. The plates were then placed in ice and chloroform (500 μL) was added, mixed well and incubated at 4° C. for 20 minutes. The plates were then centrifuged at 1000 rpm for 15 minutes at 4° C.
A portion (300 μL) of the aqueous solution was collected and mixed with a 5% aqueous suspension of activated charcoal (300 μL). The plates were then incubated at 4° C. for 30 minutes, after which the plates were centrifuged at 1000 rpm for 15 minutes at 4° C. From this, 125 μL of the aqueous solution was collected and plated into a 96 well plate. Microscint™ 40 [125 μL, Perkin-Elmer; containing a mixture of a polymer based on alkylphenolethoxylate (20-40%), diethanolamine-phosphoric acid ester ammonium salt (10-20%), sodium dioctyl sulphosuccinate (2.5-10%), triethyl phosphate (2.5-10%), 3,6-dimethyl-4-octyne-3,6-diol (≦2.5%), a polymer based on nonylphenolethoxylate (≦2.5%), diisopropyl naphthalene isomers (40-60%), 2,5-diphenyloxazole (≦2.5%), and 9,10-dimethylanthracene] was added and mixed well. After 30 minutes of incubation, the samples were analyzed with a MicroBeta® Trilux microplate liquid scintillation counter and luminometer (Perkin-Elmer).

Experiment [2] addresses T2, human CYP17 in H295R adrenocortical carcinoma cells (Homo sapiens, UniProt P05093).
T2 construct: H295R Adrenocortical carcinoma cells [NCI-H295A, ATCC Number CRL-2128, American Type Culture Collection; host or cells: H295R adrenocortical carcinoma cells
T2 sequence (P05093 1-508): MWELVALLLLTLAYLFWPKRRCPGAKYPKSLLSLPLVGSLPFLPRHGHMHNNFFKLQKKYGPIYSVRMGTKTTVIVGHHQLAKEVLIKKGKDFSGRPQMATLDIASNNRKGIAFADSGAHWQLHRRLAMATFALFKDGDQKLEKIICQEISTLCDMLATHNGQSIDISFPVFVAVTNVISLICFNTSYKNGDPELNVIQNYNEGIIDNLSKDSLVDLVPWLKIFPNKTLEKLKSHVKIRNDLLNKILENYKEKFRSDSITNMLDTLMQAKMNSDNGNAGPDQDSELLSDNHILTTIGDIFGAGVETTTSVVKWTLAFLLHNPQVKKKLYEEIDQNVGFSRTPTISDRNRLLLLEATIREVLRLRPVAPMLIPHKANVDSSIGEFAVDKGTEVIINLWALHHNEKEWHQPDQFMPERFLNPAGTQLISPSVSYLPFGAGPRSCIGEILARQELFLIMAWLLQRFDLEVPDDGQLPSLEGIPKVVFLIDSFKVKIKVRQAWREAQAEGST
The experiment is described as follows: Cell-based human CYP17 inhibition assay, H295R cells. As to conditions: 16 hours, read-out: CYP17 (human H295R adrenal cells). The procedure: Cell-Based Human CYP17 Inhibition Assay
1. H295R Adrenocortical Carcinoma Cells and Growth Media: The media for the H295R Adrenocortical carcinoma cells [NCI-H295A, ATCC Number CRL-2128, American Type Culture Collection, Manassas, Va., US] (500 mL) was a DMEM:F12 Mix 1:1 with 5% (2 mL) BD Nu Serum; 1% (5 mL) ITS+Premix [BD Biosciences] and 1% Penstrep. 2. LNCap-CYP17 Cells and Growth Media: Full length hCYP17a1 gene (NCBI Reference Sequence: NM_000102.3) was cloned in pcDNA3.1(+) vector between HindIII and XhoI site. The pcDNA3.1(+) vector contains the Neomycin resistance gene and was used for selection of stable cell line. The hCYP17a1 containing pcDNA3.1(+) was transfected into LNCap cells to create the LNCap-CYP17 cell line. The media for the LNCaP-CYP17 cells was RPMI 1640, 10% FBS, 1% PenStrep, Geneticin 400 μg/mL.
The H295R cells or LNCaP-hCYP17 cells were subcultured and 30,000 cells per well were seeded in a poly-d lysine plate and incubated overnight at 37° C. The next day the media was removed and 200 μL of fresh media with ^3H3-17α-hydroxy-pregnenolone (1:1000) was added. 50 μL of serially diluted compounds from a 5× plate (5 times the final desired concentration) was added. The working concentration range for active, new compounds started from a high concentration of 10 μM with 3-fold serial dilutions generating up to 10 concentrations. The serial dilution in the 100× plate (in DMSO) and the stamping of a 5× plate (in media) from the 100× plate were carried out using a TECAN liquid handling device.
The plates were incubated overnight (16 hours) at 37° C. After 16 hours, the media was removed (approximately 220 μL) and an equal amount of chloroform was added, mixed and incubated for 30 minutes at 4 degrees. The plate was centrifuged at 4000 rpm for 15 minutes at 4° C., following which the top aqueous layer was carefully removed and added into a new deep well plate. An equal volume of activated 5% charcoal was added, mixed and incubated for 30 minutes at 4° C. The plate was then centrifuged at 4000 rpm for 15 minutes at 4° C. and the top layer carefully separated, avoiding any charcoal contamination, and placed in a white, clear bottom plate (plate cat #3610, Corning Life Sciences). An equal volume of Microscint™ 40 was added and mixed well. Following the incubation for 30 minutes, readings for the radiotracer were taken using a Microbeta® trilux.

Take `CC(O)(c1ccncc1)c1cnc(-c2ccccc2)s1` (centres unmarked) [Example 51, 1-(2-phenylthiazol-5-yl)-1-(pyridin-4-yl)ethanol]: the IC50 in experiment [1] and in experiment [2] was less than 50 nM in each case.

For the compound `CCC(O)(c1ccncc1)c1ncc(-c2ccc(F)cc2)s1` (centres unmarked) [Example 13, 1-(5-(4-Fluorophenyl)thiazol-2-yl)-1-(pyridin-4-yl)propan-1-ol], the IC50 in experiment [1] was less than 50 nM; in experiment [2], 201 to 10000 nM.

As to `CC(O)(c1ccncc1)c1cnc(-c2ccc(C#N)c(C(F)(F)F)c2)s1` (centres unmarked) [Example 30, 4-(5-(1-Hydroxy-1-(pyridin-4-yl)ethyl)thiazol-2-yl)-2-(trifluoro-methyl)benzonitrile], the IC50 in experiment [1] is less than 50 nM; in experiment [2], 50 to 200 nM.

Take `CC(O)(c1ccncc1)c1cnc(-c2ccc(F)cc2)o1` (centres unmarked) [Example 23, 1-(2-(4-Fluorophenyl)oxazol-5-yl)-1-(pyridin-4-yl)ethanol]: the results for the IC50 in experiment [1] and in experiment [2] were less than 50 nM and 201 to 10000 nM, respectively.

In the case of `CC(O)(c1ccncc1)c1cnc(-c2ccc(F)cc2)cn1` (centres unmarked) [Example 11, 1-(5-(4-Fluorophenyl)pyrazin-2-yl)-1-(pyridin-4-yl)ethanol], the IC50 in experiment [1] is less than 50 nM; in experiment [2], 201 to 10000 nM.

In the case of `CC(O)(c1ccncc1)c1cnc(-c2ccc(Cl)c(C#N)c2)s1` (centres unmarked) [Example 42, 2-chloro-5-(5-(1-hydroxy-1-(pyridin-4-yl)ethyl)thiazol-2-yl)benzonitrile], the IC50 in experiment [1] and in experiment [2] was less than 50 nM each time.

For `CC(O)(c1ccncc1)c1nnc(-c2ccc(F)cc2)s1` (centres unmarked) [Example 61, 1-(5-(4-fluorophenyl)-1,3,4-thiadiazol-2-yl)-1-(pyridin-4-yl)ethanol], the IC50 in experiment [1] is less than 50 nM; in experiment [2], 50 to 200 nM.

Regarding `CC(O)(c1ccncc1)c1cc(-c2ccc(F)cc2)sn1` (centres unmarked) [Example 63, 1-(5-(4-fluorophenyl)isothiazol-3-yl)-1-(pyridin-4-yl)ethanol], the IC50 in experiment [1] and in experiment [2] was less than 50 nM in each case.

`CC(O)(c1ccncc1)c1cc(-c2ccc(F)cc2)no1` (centres unmarked) [Example 32, 1-[3-(4-Fluoro-phenyl)-isoxazol-5-yl]-1-pyridin-4-yl-ethanol]: the IC50 is less than 50 nM in experiment [1] and 50 to 200 nM in experiment [2].

As to `CCC(O)(c1ccncc1)c1cnc(-c2cn[nH]c2)s1` (single isomer, unassigned; (-)) [Example 19, (−)-1-[2-(1H-pyrazol-4-yl)-1,3-thiazol-5-yl]-1-pyridin-4-ylpropan-1-ol], the IC50 in experiment [1] and in experiment [2] was less than 50 nM throughout.

Take `CC(O)(c1ccncc1)c1nnc(-c2ccc(F)cc2)o1` (centres unmarked) [Example 31, 1-(5-(4-Fluorophenyl)-1,3,4-oxadiazol-2-yl)-1-(pyridin-4-yl)ethanol]: the figures for the IC50 in experiment [1] and in experiment [2] were 50 to 200 nM and 201 to 10000 nM, respectively.

As to `CC(O)(c1ccncc1)c1cnc(-c2ccc(C#N)c(Cl)c2)s1` (centres unmarked) [Example 38, 2-chloro-4-(5-(1-hydroxy-1-(pyridin-4-yl)ethyl)thiazol-2-yl)benzonitrile], the figures for the IC50 in experiment [1] and in experiment [2] were less than 50 nM and 50 to 200 nM, respectively.

Turning to `CC(O)(c1ccncc1)c1cc(-c2ccc(F)cc2)ns1` (centres unmarked) [Example 48, 1-(3-(4-fluorophenyl)isothiazol-5-yl)-1-(pyridin-4-yl)ethanol], the IC50 in experiment [1] and in experiment [2] was less than 50 nM throughout.

On to `CC(O)(c1ccncc1)c1cnc(-c2ccc(F)c(C#N)c2)s1` (centres unmarked) [Example 40, 2-fluoro-5-(5-(1-hydroxy-1-(pyridin-4-yl)ethyl)thiazol-2-yl)benzonitrile], for which the IC50 in experiment [1] and in experiment [2] was less than 50 nM in each case.

As to `CC(C)CC(O)(c1ccncc1)c1cnc(-c2ccc(F)cc2)s1` (centres unmarked) [Example 47, 1-(2-(4-fluorophenyl)thiazol-5-yl)-3-methyl-1-(pyridin-4-yl)butan-1-ol], the IC50 in experiment [1] and in experiment [2] was less than 50 nM in each case.

For the compound `CCC(O)(c1ccncc1)c1ncc(-c2cn[nH]c2)o1` (centres unmarked) [Example 57, 1-(5-(1H-pyrazol-4-yl)oxazol-2-yl)-1-(pyridin-4-yl)propan-1-ol], the IC50 in experiment [1] was 50 to 200 nM; in experiment [2] it was 201 to 10000 nM.
